Reference: ChEMBL document CHEMBL3507680, “University of Dundee, Gates Library screen for HepG2 cell viability”

Assay: Human HepG2 cell viability assay in 384 well format
Type: toxicity, cell-based
Parameters: dose 125 nL, time 70.5 hour; cytotoxicity at 70.5 h: concentration not given beside the values
Details: HepG2 cells, read-out: Inhibition

**Q.** For `O=C1C(N2CCOC3(CCCC3)C2)CCN1C1CC1` (stereo unspecified), which cytotoxicity at 70.5 h is on record?
**A.** The cytotoxicity at 70.5 h was -1.76%.

**Q.** For `COc1ccc(C2(NCc3noc(C4CC4)n3)CCOCC2)cc1`, which cytotoxicity at 70.5 h is on record?
**A.** The cytotoxicity at 70.5 h was -12.1%.

**Q.** Which cytotoxicity at 70.5 h does the source give for `CC(C)CC(NC(=O)c1ccc[nH]1)C(=O)N1CCC(CO)CC1` (stereo unspecified) here?
**A.** The cytotoxicity at 70.5 h was -11.2%.

**Q.** For `CC(C)CC(C)NCc1cccnc1N1CCOCC1` (stereo unspecified), which cytotoxicity at 70.5 h is on record?
**A.** The cytotoxicity at 70.5 h was 19.8%.

**Q.** For `O=C(c1ccc(-n2cc(Br)cn2)cc1)N1CCN(c2cnccn2)CC1`, which cytotoxicity at 70.5 h is on record?
**A.** Its cytotoxicity at 70.5 h is -10%.

**Q.** Which cytotoxicity at 70.5 h does the source give for `Cc1ccnn1-c1ccc(C(=O)N2CCN(c3cnccn3)CC2)cc1` here?
**A.** Its cytotoxicity at 70.5 h is -0.832%.

**Q.** For `O=C(c1ccc(-n2ccnc2)cc1)N1CCN(c2cnccn2)CC1`, which cytotoxicity at 70.5 h is on record?
**A.** The cytotoxicity at 70.5 h was 2.67%.

**Q.** With `CC(SCC(=O)NC(N)=O)c1ccc(Cl)cc1` (stereo unspecified) as the compound, how does the cytotoxicity at 70.5 h read?
**A.** Its cytotoxicity at 70.5 h is -9.52%.

**Q.** For `CN1CCN(CCCNC(=O)C2CCCCC2)CC1`, which cytotoxicity at 70.5 h is on record?
**A.** The cytotoxicity at 70.5 h was 12.1%.

**Q.** For `O=C(Nc1ccc(F)cc1)C1CCN(Cc2noc(C3CC3)n2)CC1`, which cytotoxicity at 70.5 h is on record?
**A.** Its cytotoxicity at 70.5 h is -7.96%.

**Q.** For `CCNC(=O)CCS(=O)(=O)Cc1ccn(-c2cccc(F)c2)n1`, which cytotoxicity at 70.5 h is on record?
**A.** The cytotoxicity at 70.5 h was 2.48%.

**Q.** Which cytotoxicity at 70.5 h does the source give for `N#Cc1ccc(C(=O)N(C2CC2)C2CC(=O)NC2=O)cc1` (stereo unspecified) here?
**A.** The cytotoxicity at 70.5 h was -8.96%.

**Q.** For `CCOC(=O)c1ccc(NC(=O)c2cc3c([nH]c2=O)CCCC3)cc1`, which cytotoxicity at 70.5 h is on record?
**A.** Its cytotoxicity at 70.5 h is -14.4%.

**Q.** Which cytotoxicity at 70.5 h does the source give for `O=C1CC(N(C(=O)c2ccccc2Br)C2CC2)C(=O)N1` (stereo unspecified) here?
**A.** Its cytotoxicity at 70.5 h is 2.23%.

**Q.** With `CC1CCN(C)c2ccccc2N1C(=O)c1ccnc(-n2cncn2)c1` (stereo unspecified) as the compound, how does the cytotoxicity at 70.5 h read?
**A.** Its cytotoxicity at 70.5 h is 2.2%.

**Q.** With `CC(=O)c1c(C)cc(C)c(Cn2ccnc2S(C)(=O)=O)c1C` as the compound, how does the cytotoxicity at 70.5 h read?
**A.** Its cytotoxicity at 70.5 h is 6.42%.

**Q.** With `O=C(c1ccc(-n2cncn2)cc1)N1CCN(c2cnccn2)CC1` as the compound, how does the cytotoxicity at 70.5 h read?
**A.** Its cytotoxicity at 70.5 h is -9.5%.

**Q.** For `Cc1cnn(Cc2ccc(NC(=O)N[C@@H]3C=C[C@H](CO)C3)cc2)c1`, which cytotoxicity at 70.5 h is on record?
**A.** Its cytotoxicity at 70.5 h is -15.1%.

**Q.** Which cytotoxicity at 70.5 h does the source give for `CCCN1CCCN(c2ccc(-n3ccc(C)n3)nn2)CC1` here?
**A.** Its cytotoxicity at 70.5 h is -7.57%.

**Q.** Which cytotoxicity at 70.5 h does the source give for `Cc1ccn(-c2ccc(N3CCCN(Cc4ccccc4)CC3)nn2)n1` here?
**A.** Its cytotoxicity at 70.5 h is 2.19%.

**Q.** With `CC1CN(C(=O)c2ccnc(-n3cncn3)c2)c2ccccc2S1` (stereo unspecified) as the compound, how does the cytotoxicity at 70.5 h read?
**A.** Its cytotoxicity at 70.5 h is -0.177%.

**Q.** Which cytotoxicity at 70.5 h does the source give for `Cn1ncc(C(=O)OCC2CC(=O)N(c3ccccc3)C2)c1C(F)F` (stereo unspecified) here?
**A.** The cytotoxicity at 70.5 h was -9.29%.

**Q.** With `CC(O)CC(C)(C)CNC(=O)Nc1cnn(-c2ccccc2F)c1` (stereo unspecified) as the compound, how does the cytotoxicity at 70.5 h read?
**A.** Its cytotoxicity at 70.5 h is -4.35%.

**Q.** For `Cc1cccc2ncnc(N3CCOC(C)C3)c12` (stereo unspecified), which cytotoxicity at 70.5 h is on record?
**A.** The cytotoxicity at 70.5 h was 2.61%.

**Q.** With `Cc1c(C(=O)OCC2CC(=O)N(c3ccccc3)C2)cnn1C(C)C` (stereo unspecified) as the compound, how does the cytotoxicity at 70.5 h read?
**A.** The cytotoxicity at 70.5 h was -0.00833%.

**Q.** For `Cn1cc(C2(C)CN(Cc3ccc(O)c(Cl)c3)CCO2)cn1` (stereo unspecified), which cytotoxicity at 70.5 h is on record?
**A.** Its cytotoxicity at 70.5 h is -6.24%.

**Q.** With `Cn1cc(C2(C)CN(Cc3ccc(Cl)c(F)c3)CCO2)cn1` (stereo unspecified) as the compound, how does the cytotoxicity at 70.5 h read?
**A.** Its cytotoxicity at 70.5 h is -7.47%.

**Q.** For `O=C(NCC1CC(=O)N(CCc2ccccc2)C1)c1ccc[nH]1` (stereo unspecified), which cytotoxicity at 70.5 h is on record?
**A.** Its cytotoxicity at 70.5 h is -8.75%.

**Q.** Which cytotoxicity at 70.5 h does the source give for `Cc1cc(CN(C)C(=O)NCc2ccccn2)no1` here?
**A.** Its cytotoxicity at 70.5 h is -1.24%.

**Q.** Which cytotoxicity at 70.5 h does the source give for `Cc1cc(CN(C)C(=O)NCc2ccnc(OC3CCCC3)c2)no1` here?
**A.** Its cytotoxicity at 70.5 h is -3.22%.

**Q.** Which cytotoxicity at 70.5 h does the source give for `O=C(NCCNc1ncccn1)N1CC=C(c2ccccc2)CC1` here?
**A.** Its cytotoxicity at 70.5 h is -4.56%.

**Q.** For `O=C(NCCNc1cnccn1)N1CCc2ccccc2C1`, which cytotoxicity at 70.5 h is on record?
**A.** Its cytotoxicity at 70.5 h is -13.1%.

**Q.** For `COc1c(C)cnc(CNC(=O)c2cc(C)nc3onc(C)c23)c1C`, which cytotoxicity at 70.5 h is on record?
**A.** The cytotoxicity at 70.5 h was -5.39%.

**Q.** Which cytotoxicity at 70.5 h does the source give for `O=C(NCc1ccccc1CO)Nc1ccc2c(c1)CCO2` here?
**A.** The cytotoxicity at 70.5 h was 7.29%.

**Q.** Which cytotoxicity at 70.5 h does the source give for `COc1c(CNCc2ccc(Cn3cccn3)cc2)c(C)nn1C` here?
**A.** Its cytotoxicity at 70.5 h is 3.44%.

**Q.** With `O=C(NCCNc1cnccn1)N1CC=C(c2ccc(O)cc2)CC1` as the compound, how does the cytotoxicity at 70.5 h read?
**A.** The cytotoxicity at 70.5 h was 2.47%.

**Q.** With `N#Cc1ccccc1N1CCN(CCC(=O)N2CCOCC2)CC1` as the compound, how does the cytotoxicity at 70.5 h read?
**A.** The cytotoxicity at 70.5 h was -3.68%.

**Q.** With `N#Cc1ccccc1N1CCN(C(=O)NCC(=O)N2CCCC2)CC1` as the compound, how does the cytotoxicity at 70.5 h read?
**A.** Its cytotoxicity at 70.5 h is -0.138%.

**Q.** For `COC(=O)c1cc(NS(=O)(=O)c2cn(C)cn2)c(F)cc1F`, which cytotoxicity at 70.5 h is on record?
**A.** Its cytotoxicity at 70.5 h is -2.67%.

**Q.** Which cytotoxicity at 70.5 h does the source give for `O=C(CCCc1ccccn1)N1CCC(Nc2cccnn2)CC1` here?
**A.** The cytotoxicity at 70.5 h was -0.523%.

**Q.** Which cytotoxicity at 70.5 h does the source give for `CN(Cc1ccc(Cl)cc1)S(=O)(=O)N(C)Cc1cnn(C)c1` here?
**A.** Its cytotoxicity at 70.5 h is -1.12%.

**Q.** With `Cc1ccnc(N2CCCC(c3noc(C(C)C)n3)C2)n1` (stereo unspecified) as the compound, how does the cytotoxicity at 70.5 h read?
**A.** The cytotoxicity at 70.5 h was 6.3%.

**Q.** With `CC(C)c1nc(C2CCCN(c3nccc(N4CCCC4)n3)C2)no1` (stereo unspecified) as the compound, how does the cytotoxicity at 70.5 h read?
**A.** The cytotoxicity at 70.5 h was -2.95%.

**Q.** With `CCc1ccc(C(=O)N2CCCC2c2nnc3n2CCCCC3)o1` (stereo unspecified) as the compound, how does the cytotoxicity at 70.5 h read?
**A.** The cytotoxicity at 70.5 h was 3.58%.

**Q.** For `CC(C)c1nnc2n1CC(CNCc1cccnc1)CC2` (stereo unspecified), which cytotoxicity at 70.5 h is on record?
**A.** Its cytotoxicity at 70.5 h is -6.45%.

**Q.** Which cytotoxicity at 70.5 h does the source give for `Cc1ncsc1CCN1CCC(N(C)Cc2noc(C(C)C)n2)C1` (stereo unspecified) here?
**A.** The cytotoxicity at 70.5 h was 6.17%.
